Structures can show the parent of a compound that is named as a salt. A value given as a limit tells only on which side of the number the result lay.

Chain of purified human Factor XIa (P03951 388-625): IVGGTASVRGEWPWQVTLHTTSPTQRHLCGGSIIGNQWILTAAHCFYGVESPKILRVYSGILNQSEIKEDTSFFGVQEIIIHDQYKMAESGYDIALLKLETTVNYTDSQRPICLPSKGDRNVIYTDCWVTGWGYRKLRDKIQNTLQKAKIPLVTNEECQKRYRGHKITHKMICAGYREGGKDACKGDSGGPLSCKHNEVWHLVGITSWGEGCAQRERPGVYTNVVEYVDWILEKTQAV
Chain of purified human Factor XIa (P03951 19-387 partner): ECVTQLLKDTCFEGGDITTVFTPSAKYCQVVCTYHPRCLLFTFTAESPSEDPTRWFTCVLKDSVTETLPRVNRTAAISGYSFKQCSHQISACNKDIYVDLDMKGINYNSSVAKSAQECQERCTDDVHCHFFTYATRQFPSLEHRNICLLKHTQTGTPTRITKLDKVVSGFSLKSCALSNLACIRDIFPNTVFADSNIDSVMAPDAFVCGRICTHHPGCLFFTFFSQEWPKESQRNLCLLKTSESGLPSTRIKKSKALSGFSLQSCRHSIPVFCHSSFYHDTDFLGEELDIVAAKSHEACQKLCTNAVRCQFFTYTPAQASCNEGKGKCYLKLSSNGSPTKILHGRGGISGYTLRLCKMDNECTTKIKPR

One test concerns the target purified human Factor XIa (Homo sapiens (Human), UniProt P03951). As to the kind of experiment: Factor XIa enzyme inhibition assay (chromogenic substrate S-2366).
Settings: not given
As usually defined, the Ki is the dissociation constant of the complex between target and ligand, obtained from inhibition or displacement. Compound `COc1cccc(-c2cccc3c2CCN(C(=O)c2cn(-c4cccc(Cl)c4F)nn2)C3C(=O)Nc2ccc(C(=O)O)cc2)c1F` (stereo not drawn) [Example 180, 4-(2-(1-(3-chloro-2-fluorophenyl)-1H-1,2,3-triazole-4-carbonyl)-5-(2-fluoro-3-methoxyphenyl)-1,2,3,4-tetrahydroisoquinoline-1-carboxamido)benzoic acid] showed a Ki of 5.2 nM.

For `COc1ncc(-c2cccc3c2CCN(C(=O)c2cn(-c4cccc(Cl)c4F)nn2)C3C(=O)Nc2ccc(C(=O)O)cc2)c(OC)n1` (stereo not drawn) [Example 158, 4-(2-(1-(3-chloro-2-fluorophenyl)-1H-1,2,3-triazole-4-carbonyl)-5-(2,4-dimethoxypyrimidin-5-yl)-1,2,3,4-tetrahydroisoquinoline-1-carboxamido)benzoic acid], the Ki is less than 5 nM.

The same test, now with this note: read-out: Factor XIa Ki; measured at 25° C.
On to `CC1(O)CCN(c2cccc3c2CCN(C(=O)c2cnn(-c4cccc(Cl)c4F)c2)C3C(=O)Nc2ccc(C(=O)O)cc2)CC1` (stereo not drawn) [Example 68, 4-(2-(1-(3-chloro-2-fluorophenyl)-1H-pyrazole-4-carbonyl)-5-(4-hydroxy-4-methylpiperidin-1-yl)-1,2,3,4-tetrahydroisoquinoline-1-carboxamido)benzoic acid, TFA salt], for which the Ki is less than 5 nM.

For `O=C(O)c1ccc(NC(=O)C2c3cccc(C4=CCOCC4)c3CCN2C(=O)c2cn(-c3cccc(Cl)c3F)nn2)cc1` (stereo not drawn) [Example 165, 4-(2-(1-(3-chloro-2-fluorophenyl)-1H-1,2,3-triazole-4-carbonyl)-5-(3,6-dihydro-2H-pyran-4-yl)-1,2,3,4-tetrahydroisoquinoline-1-carboxamido)benzoic acid], the Ki is less than 5 nM.

Turning to `CN(C)c1ncc(-c2cccc3c2CCN(C(=O)c2cn(-c4cccc(Cl)c4F)nn2)C3C(=O)Nc2ccc(C(=O)O)cc2)cn1` (stereo not drawn) [Example 183, 4-(2-(1-(3-chloro-2-fluorophenyl)-1H-1,2,3-triazole-4-carbonyl)-5-(2-(dimethylamino)pyrimidin-5-yl)-1,2,3,4-tetrahydroisoquinoline-1-carboxamido)benzoic acid], the Ki was less than 5 nM.

As to `O=C(O)c1ccc(NC(=O)C2c3cccc(-c4ccc5occc(=O)c5c4)c3CCN2C(=O)c2cn(-c3cccc(Cl)c3F)nn2)cc1` (stereo not drawn) [Example 175, 4-(2-(1-(3-chloro-2-fluorophenyl)-1H-1,2,3-triazole-4-carbonyl)-5-(4-oxo-4H-chromen-6-yl)-1,2,3,4-tetrahydroisoquinoline-1-carboxamido)benzoic acid], the Ki was less than 5 nM.

`CN1CCC(=O)N(c2cccc3c2CCN(C(=O)c2cnn(-c4cccc(Cl)c4F)c2)C3C(=O)Nc2ccc(C(=O)O)cc2)CC1` (stereo not drawn) [Example 70, 4-(2-(1-(3-chloro-2-fluorophenyl)-1H-pyrazole-4-carbonyl)-5-(4-methyl-7-oxo-1,4-diazepan-1-yl)-1,2,3,4-tetrahydroisoquinoline-1-carboxamido)benzoic acid, TFA salt]: the Ki worked out at 29.3 nM.

Consider `O=C(O)c1ccc(NC(=O)[C@@H]2c3cccc(N4CCC(O)CC4)c3CCN2C(=O)c2cn(-c3cccc(Cl)c3F)nn2)cc1` [Example 86, (S)-4-(2-(1-(3-chloro-2-fluorophenyl)-1H-1,2,3-triazole-4-carbonyl)-5-(4-hydroxypiperidin-1-yl)-1,2,3,4-tetrahydroisoquinoline-1-carboxamido)benzoic acid, TFA salt], for which the Ki is less than 5 nM.

As for `CN(C)S(=O)(=O)c1cccc(-c2cccc3c2CCN(C(=O)c2cn(-c4cccc(Cl)c4F)nn2)C3C(=O)Nc2ccc(C(=O)O)cc2)c1` (stereo not drawn) [Example 177, 4-(2-(1-(3-chloro-2-fluorophenyl)-1H-1,2,3-triazole-4-carbonyl)-5-(3-(N,N-dimethylsulfamoyl)phenyl)-1,2,3,4-tetrahydroisoquinoline-1-carboxamido)benzoic acid], the Ki was less than 5 nM.

Regarding `NCc1cccc(-c2cccc3c2CCN(C(=O)c2cn(-c4cccc(Cl)c4F)nn2)C3C(=O)Nc2ccc(C(=O)O)cc2)c1` (stereo not drawn) [Example 173, 4-(5-(3-(aminomethyl)phenyl)-2-(1-(3-chloro-2-fluorophenyl)-1H-1,2,3-triazole-4-carbonyl)-1,2,3,4-tetrahydroisoquinoline-1-carboxamido)benzoic acid, TFA salt], the Ki was less than 5 nM.

Take `Cn1ncc2ccc(-c3cccc4c3CCN(C(=O)c3cn(-c5cccc(Cl)c5F)nn3)C4C(=O)Nc3ccc(C(=O)O)cc3)cc21` (stereo not drawn) [Example 170, 4-(2-(1-(3-chloro-2-fluorophenyl)-1H-1,2,3-triazole-4-carbonyl)-5-(1-methyl-1H-indazol-6-yl)-1,2,3,4-tetrahydroisoquinoline-1-carboxamido)benzoic acid]: the Ki is less than 5 nM.

`O=C(O)c1ccc(NC(=O)C2c3cccc(-c4ccc(S(=O)(=O)NC5CC5)cc4)c3CCN2C(=O)c2cn(-c3cccc(Cl)c3F)nn2)cc1` (stereo not drawn) [Example 176, 4-(2-(1-(3-chloro-2-fluorophenyl)-1H-1,2,3-triazole-4-carbonyl)-5-(4-(N-cyclopropylsulfamoyl)phenyl)-1,2,3,4-tetrahydroisoquinoline-1-carboxamido)benzoic acid]: the inhibition constant Ki is less than 5 nM.

As to `NC(=O)Cc1cccc(-c2cccc3c2CCN(C(=O)c2cn(-c4cccc(Cl)c4F)nn2)C3C(=O)Nc2ccc(C(=O)O)cc2)c1` (stereo not drawn) [Example 188, 4-(5-(3-(2-amino-2-oxoethyl)phenyl)-2-(1-(3-chloro-2-fluorophenyl)-1H-1,2,3-triazole-4-carbonyl)-1,2,3,4-tetrahydroisoquinoline-1-carboxamido)benzoic acid], the Ki was less than 5 nM.

Regarding `O=C(O)c1ccc(NC(=O)[C@@H]2c3cccc(N4CCN(C5COC5)CC4)c3CCN2C(=O)[C@H]2CC(c3cccc(Cl)c3F)=NO2)cc1` [Example 227, 4-((S)-2-((R)-3-(3-Chloro-2-fluorophenyl)-4,5-dihydroisoxazole-5-carbonyl)-5-(4-(oxetan-3-yl)piperazin-1-yl)-1,2,3,4-tetrahydroisoquinoline-1-carboxamido)benzoic acid, 2 TFA salt], the Ki was less than 5 nM.

Take “4-(2-(1-(3-chloro-2- fluorophenyl)-5-hydroxy- 1H-pyrazole-4-carbonyl)-5- (4-methylpiperazin-1-yl)- 1,2,3,4- tetrahydroisoquinoline-1- carboxamido)benzoic acid, 2 TFA salt. [Example 214]”: the Ki was 713 nM.

On to `N#Cc1ccc(-c2cccc3c2CCN(C(=O)c2cn(-c4cccc(Cl)c4F)nn2)C3C(=O)Nc2ccc(C(=O)O)cc2)cn1` (stereo not drawn) [Example 182, 4-(2-(1-(3-chloro-2-fluorophenyl)-1H-1,2,3-triazole-4-carbonyl)-5-(6-cyanopyridin-3-yl)-1,2,3,4-tetrahydroisoquinoline-1-carboxamido)benzoic acid, TFA salt], for which the Ki is less than 5 nM.

In the case of `O=C(O)c1ccc(NC(=O)C2c3cccc(-c4ccncc4)c3CCN2C(=O)c2cn(-c3cccc(Cl)c3F)nn2)cc1` (stereo not drawn) [Example 186, 4-(2-(1-(3-chloro-2-fluorophenyl)-1H-1,2,3-triazole-4-carbonyl)-5-(pyridin-4-yl)-1,2,3,4-tetrahydroisoquinoline-1-carboxamido)benzoic acid, TFA salt], the Ki was less than 5 nM.

As for `O=C(O)c1ccc(NC(=O)[C@@H]2c3cccc(N4CCOCC4=O)c3CCN2C(=O)[C@H]2CC(c3cccc(Cl)c3F)=NO2)cc1` [Example 289, 4-((S)-2-((R)-3-(3-chloro-2-fluorophenyl)-4,5-dihydroisoxazole-5-carbonyl)-5-(3-oxomorpholino)-1,2,3,4-tetrahydroisoquinoline-1-carboxamido)benzoic acid,], the Ki is less than 5 nM.

With `COC1CCN(c2cccc3c2CCN(C(=O)c2sc(-c4cccnc4)nc2C)C3C(=O)Nc2ccc(C(=O)O)cc2)CC1` (stereo not drawn) [Example 146, 4-(5-(4-methoxypiperidin-1-yl)-2-(4-methyl-2-(pyridin-3-yl)thiazole-5-carbonyl)-1,2,3,4-tetrahydroisoquinoline-1-carboxamido)benzoic acid, 2 TFA salt], the Ki turned out to be 1200 nM.

As for `O=C(O)c1ccc(NC(=O)C2c3cccc(N4CCOCC4=O)c3CCN2C(=O)[C@H]2CC(c3cccc(Cl)c3F)=NO2)cc1` (stereo in doubt) [Example 290, 4-((S)-2-((R)-3-(3-chloro-2-fluorophenyl)-4,5-dihydroisoxazole-5-carbonyl)-5-(3-oxomorpholino)-1,2,3,4-tetrahydroisoquinoline-1-carboxamido)benzoic acid], the Ki worked out at 13.4 nM.

In the case of `Nc1c(C(=O)N2CCc3c(-c4cncnc4)cccc3C2C(=O)Nc2ccc(C(=O)O)cc2)cnn1-c1cccc(Cl)c1F` (stereo not drawn) [Example 46, 4-(2-(5-Amino-1-(3-chloro-2-fluorophenyl)-1H-pyrazole-4-carbonyl)-5-(pyrimidin-5-yl)-1,2,3,4-tetrahydroisoquinoline-1-carboxamido)benzoic acid, TFA salt], the Ki was less than 5 nM.

With `O=C(O)c1ccc(NC(=O)C2c3cccc(-c4ccc5nccnc5c4)c3CCN2C(=O)c2cn(-c3cccc(Cl)c3F)nn2)cc1` (stereo not drawn) [Example 174, 4-(2-(1-(3-chloro-2-fluorophenyl)-1H-1,2,3-triazole-4-carbonyl)-5-(quinoxalin-6-yl)-1,2,3,4-tetrahydroisoquinoline-1-carboxamido)benzoic acid], the Ki is less than 5 nM.

Take `COC1CCN(c2cccc3c2CCN(C(=O)c2cc(-c4ccccc4Cl)no2)C3C(=O)Nc2ccc(C(=O)O)cc2)CC1` (stereo not drawn) [Example 148, 4-(2-(3-(2-chlorophenyl)isoxazole-5-carbonyl)-5-(4-methoxypiperidin-1-yl)-1,2,3,4-tetrahydroisoquinoline-1-carboxamido)benzoic acid, TFA salt]: the Ki came to 69.5 nM.

The same test, now with this note: read-out: Factor XIa Ki; measured at 25° C.; TFA salt.
For `COC1CCN(c2cccc3c2CCN(C(=O)C2CCN(c4cccc(Cl)c4)C2)C3C(=O)Nc2ccc(C(=O)O)cc2)CC1` (stereo not drawn) [Example 261, 4-(2-(1-(3-chlorophenyl)pyrrolidine-3-carbonyl)-5-(4-methoxypiperidin-1-yl)-1,2,3,4-tetrahydroisoquinoline-1-carboxamido)benzoic acid, TFA salt], the Ki was 948 nM.

Source of the values: patent publication US9738655B2, “Tetrahydroisoquinolines containing substituted azoles as factor XIa inhibitors” (BRISTOL-MYERS SQUIBB COMPANY, priority 2013, dated 2017).
